# Data taken from ChEMBL document CHEMBL1201862, “PubChem BioAssay data set” (2004).
#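 Growth conditions: 96-well plates. Treatment: test compound, 48 hours, 5 concentrations. Analysis: linear interpolation between bracketing concentrations; unreached endpoints set to highest concentration. Abbreviation: GI50, concentration required for 50% inhibition of growth.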 Activity calls are given as the source filed them. No stated cut-off is given here; in the data, active = GI50 up to about 1.1 µM and inactive = higher.
# How the values were obtained:
# Test in all cases: NCI anticancer screen, dose series, 48 h
# [1] = test system: RXF 393
# [2] = test system: HCC 2998
# [3] = test system: SW-620
# [4] = test system: NCI/ADR-RES
# [5] = test system: NCI-H23
# [6] = test system: EKVX
# [7] = test system: K562
# [8] = test system: SK-MEL-5
# [9] = test system: UO-31
# [10] = test system: MDA-MB-231
# [11] = test system: CAKI-1
# [12] = test system: IGROV-1
# [13] = test system: HOP-92
# [14] = test system: UACC-62
# [15] = test system: OVCAR-4
# [16] = test system: RPMI-8226
# [17] = test system: TK-10
# [18] = test system: BT-549
SMILES,GI50 [1],GI50 [2],GI50 [3],GI50 [4],GI50 [5],GI50 [6],GI50 [7],GI50 [8],GI50 [9],GI50 [10],GI50 [11],GI50 [12],GI50 [13],GI50 [14],GI50 [15],GI50 [16],GI50 [17],GI50 [18]
CSC1=C(C(=O)Nc2ccc(C)cc2)C(N)=NC1=O,> 100 µM (inactive),> 100 µM (inactive),> 100 µM (inactive),> 100 µM (inactive),> 100 µM (inactive),> 100 µM (inactive),> 100 µM (inactive),> 100 µM (inactive),> 100 µM (inactive),> 100 µM (inactive),> 100 µM (inactive),> 100 µM (inactive),> 100 µM (inactive),> 100 µM (inactive),> 100 µM (inactive),> 100 µM (inactive),> 100 µM (inactive),–
C=C[C@@]1(C)CC2CC[C@]3(C)C(C)=CC(=O)CC3[C@]2(C)CC1O (stereo partly specified),> 100 µM (inactive),> 100 µM (inactive),> 100 µM (inactive),> 100 µM (inactive),> 100 µM (inactive),> 100 µM (inactive),38 µM (inactive),> 100 µM (inactive),> 100 µM (inactive),–,> 100 µM (inactive),> 100 µM (inactive),> 100 µM (inactive),> 100 µM (inactive),> 100 µM (inactive),> 100 µM (inactive),> 100 µM (inactive),–
O=c1[nH]nc(Cc2ccc(Cl)cc2)n1O,> 100 µM (inactive),> 100 µM (inactive),> 100 µM (inactive),> 100 µM (inactive),> 100 µM (inactive),> 100 µM (inactive),> 100 µM (inactive),> 100 µM (inactive),> 100 µM (inactive),> 100 µM (inactive),> 100 µM (inactive),> 100 µM (inactive),> 100 µM (inactive),> 100 µM (inactive),> 100 µM (inactive),> 100 µM (inactive),> 100 µM (inactive),–
CN(C)c1nc2oc(-c3ccccc3)c(-c3ccccc3)c2c2nncn12,> 100 µM (inactive),> 100 µM (inactive),> 100 µM (inactive),> 100 µM (inactive),> 100 µM (inactive),> 100 µM (inactive),> 100 µM (inactive),–,> 100 µM (inactive),> 100 µM (inactive),> 100 µM (inactive),> 100 µM (inactive),> 100 µM (inactive),> 100 µM (inactive),> 100 µM (inactive),> 100 µM (inactive),> 100 µM (inactive),–
Cc1ccc2c(c1)CC1(Cc3cccc(C)c3C1=O)C2=O (stereo unspecified),> 100 µM (inactive),> 100 µM (inactive),> 100 µM (inactive),> 100 µM (inactive),> 100 µM (inactive),> 100 µM (inactive),39.4 µM (inactive),32.3 µM (inactive),20.9 µM (inactive),19.4 µM (inactive),–,> 100 µM (inactive),50.7 µM (inactive),48.4 µM (inactive),55.8 µM (inactive),> 100 µM (inactive),> 100 µM (inactive),–
C/C(=N/NC(=S)N1CCCCCC1)c1cccc(/C(C)=N\NC(=S)N2CCCCCC2)n1,1.6 µM (inactive),2.27 µM (inactive),1.11 µM (active),1.69 µM (inactive),2.31 µM (inactive),3.13 µM (inactive),2.45 µM (inactive),1.42 µM (inactive),1.37 µM (inactive),1.7 µM (inactive),–,1.49 µM (inactive),1.7 µM (inactive),2.38 µM (inactive),1.01 µM (active),1.91 µM (inactive),1.77 µM (inactive),–
Cc1cc(C)n(C(=O)CSc2nc3ccc(I)cc3c(=O)n2Cc2ccccc2)n1,26.9 µM (inactive),68.4 µM (inactive),87.1 µM (inactive),36.6 µM (inactive),65.8 µM (inactive),24 µM (inactive),> 100 µM (inactive),25.2 µM (inactive),–,23.3 µM (inactive),4.63 µM (inactive),20 µM (inactive),15.5 µM (inactive),80.5 µM (inactive),35.1 µM (inactive),> 100 µM (inactive),41.6 µM (inactive),–
C/C(=C/CNc1ncnc2c1ncn2CCC#N)CO,> 100 µM (inactive),> 100 µM (inactive),> 100 µM (inactive),> 100 µM (inactive),> 100 µM (inactive),> 100 µM (inactive),> 100 µM (inactive),> 100 µM (inactive),> 100 µM (inactive),> 100 µM (inactive),> 100 µM (inactive),> 100 µM (inactive),> 100 µM (inactive),> 100 µM (inactive),> 100 µM (inactive),> 100 µM (inactive),> 100 µM (inactive),–
O=c1c(Nc2ccccc2)cn(CCOc2ccccc2)c(=O)n1CCOc1ccccc1,48.4 µM (inactive),63.1 µM (inactive),> 100 µM (inactive),47.2 µM (inactive),33.4 µM (inactive),33.1 µM (inactive),> 100 µM (inactive),47.9 µM (inactive),44.4 µM (inactive),–,81.7 µM (inactive),36.3 µM (inactive),35.6 µM (inactive),41.2 µM (inactive),19.8 µM (inactive),> 100 µM (inactive),–,20.8 µM (inactive)
COC1/C=C/C(C)C(C(C)C(OC)C(C)CCC(=O)C(C)C(CC(=O)O)OC)OC(=O)/C=C/C=C(\C)CC(OC)C(OC)C2=CC(=O)O[C@@H](C(C)C(OC)CC(OC)/C=C/C(C)C(O)C1)[C@H]2O (stereo partly specified),–,0.0631 µM (active),0.0242 µM (active),0.149 µM (active),0.164 µM (active),0.0474 µM (active),0.0564 µM (active),0.0536 µM (active),0.0382 µM (active),0.083 µM (active),0.033 µM (active),0.0129 µM (active),0.0339 µM (active),0.0479 µM (active),0.153 µM (active),0.0959 µM (active),0.0703 µM (active),–
CSC1=C(C#N)C(=O)N(c2ccc(C)cc2)C(=O)C1C#N (stereo unspecified),> 100 µM (inactive),> 100 µM (inactive),> 100 µM (inactive),–,> 100 µM (inactive),> 100 µM (inactive),> 100 µM (inactive),> 100 µM (inactive),> 100 µM (inactive),> 100 µM (inactive),30.9 µM (inactive),> 100 µM (inactive),25 µM (inactive),> 100 µM (inactive),> 100 µM (inactive),> 100 µM (inactive),> 100 µM (inactive),> 100 µM (inactive)
Cc1cc(=O)[nH]c(-n2[nH]c3c(c2=O)CCCC3)n1,14.3 µM (inactive),–,56 µM (inactive),–,95.9 µM (inactive),58.2 µM (inactive),52.2 µM (inactive),82 µM (inactive),59.6 µM (inactive),67.9 µM (inactive),70.1 µM (inactive),97.3 µM (inactive),31 µM (inactive),39.2 µM (inactive),> 100 µM (inactive),74.1 µM (inactive),> 100 µM (inactive),> 100 µM (inactive)
